36 compounds from ChEMBL document CHEMBL6074686 (Eur J Med Chem, 2025) can be followed below.

Broadly, the IC50 is the point on the concentration scale where inhibition reaches its midpoint.

Structures are written as SMILES. Active and inactive are the calls of the source. The rule behind the calls is not given here. Bounds are passed on as bounds.

The test system of one test is MDA-MB-231. Description: Antitumor activity against human MDA-MB-231 cells assessed as reduction in cell viability incubated for 72 hrs by CCK8 assay. The following applies: MDA-MB-231, 72 h.
A further test concerns A549. Description: Antitumor activity against human A549 cells assessed as reduction in cell viability incubated for 72 hrs by CCK8 assay. The test is classed as functional, cell-based. To be noted: A549, 72 h. In general terms: Tetrazolium assays rely on reduction of a dye to a coloured formazan, in cell work by metabolically active cells.
The test system of test [1] is SK-OV-3. Description: Antitumor activity against human SK-OV-3 cells assessed as reduction in cell viability incubated for 72 hrs by CCK8 assay. The test is classed as functional, cell-based. The following applies: SK-OV-3, 72 h.
The next test deals with MCF7. Kind of test: Antitumor activity against human MCF7 cells assessed as reduction in cell viability incubated for 72 hrs by CCK8 assay. The test is classed as functional, cell-based. The following applies: MCF7, 72 h.
Test [2] addresses T1, Tubulin (Homo sapiens) (UniProt P68371+Q9H4B7+P0DPH7+P68366+Q13509+Q71U36+P04350+Q3ZCM7+P07437+P68363+Q9BQE3+Q6PEY2+Q13885+Q9BVA1+Q9BUF5). Kind of test: Inhibition of tubulin polymerization (unknown origin) assessed as increase in optical density at 340 nm at 10 uM. It counts as protein-complex assay.
In test [3] the test system is SK-OV-3. Description: Antitumor activity against human SK-OV-3 cells xenografted in female BALB/c nude mouse assessed as tumor growth inhibition at 10 mg/kg, […] via tail vein once every 2 to 3 days. The test is classed as functional. The following applies: time 2-3 day, read-out: TGI. (In xenograft studies the graft and the host belong to different species.)

Test [4] deals with T1, Tubulin (Homo sapiens). Description: Inhibition of tubulin polymerization in human SK-OV-3 cells at 20 nM incubated for 18 hrs by Alexa Fluor 488 staining based confocal immunofluorescent microscopic analysis. It counts as cell-based.

For `COc1cc2c(c(OC)c1OC)-c1ccc(OC)c(=O)cc1[C@@H](NC(C)=O)CC2` [COLCHICINE], the IC50 with MDA-MB-231 was determined as 12.1 nM; in the test on A549, 31.4 nM; with SK-OV-3 [1] it was 6.3 nM.

For the compound `COc1ccc2c(c1)CCCN2c1nc(Cl)nc2ccc(C)cc12`, the IC50 in the test on MDA-MB-231 turned out to be 37.1 nM; with MCF7, 45.7 nM; in the test with A549, 29.7 nM; in the test on SK-OV-3 [1] it was 38.1 nM.

Consider `COc1ccc2c(c1)CCCN2c1nc(NCc2ccccc2)nc2ccc(F)cc12`, for which the IC50 in the test on MDA-MB-231, in the test on MCF7, in the test on A549 and in the test on SK-OV-3 [1] was over 1000 nM throughout.

On to `COc1ccc2c(c1)CCCN2c1nc(NCCN(C)C)nc2ccc(F)cc12`, for which the IC50 with MDA-MB-231, in the test on MCF7, in the test on A549 and in the test on SK-OV-3 [1] was over 1000 nM in each case.

`COc1ccc(-c2nc(N3CCCc4cc(OC)ccc43)c3cc(F)ccc3n2)cc1`: the IC50 in the test with MDA-MB-231, in the test on MCF7, with A549 and in the test on SK-OV-3 [1] was over 1000 nM in each case.

On to `COc1ccc2c(c1)CCCN2c1nc(N2CCN(C)CC2)nc2ccc(F)cc12`, for which the IC50 in the test on MDA-MB-231, in the test on MCF7, in the test on A549 and with SK-OV-3 [1] was over 1000 nM each time.

For `COc1ccc2c(c1)CCCN2c1nc(NC2CCCC2)nc2ccc(F)cc12`, the IC50 with MDA-MB-231, in the test on MCF7, with A549 and in the test with SK-OV-3 [1] was over 1000 nM throughout.

Regarding `COc1ccc2c(c1)CCCN2c1nc(Cl)nc2ccc(F)cc12`, the IC50 in the test with MDA-MB-231 came out at 36.7 nM; in the test on MCF7, 24.6 nM; in the test with A549, 29.8 nM; in the test with SK-OV-3 [1], 22.2 nM.

In the case of `COc1ccc2c(c1)CCCN2c1nc(Cl)nc2ccc(Br)cc12`, the IC50 came to 66.5 nM in the test with MDA-MB-231, 67.5 nM in the test with MCF7, 15.2 nM in the test with A549 and 63.1 nM in the test with SK-OV-3 [1].

As for `CCNc1nc(N2CCCc3cc(OC)ccc32)c2cc(F)ccc2n1`, the IC50 turned out to be 8.1 nM in the test on MDA-MB-231, 3.8 nM in the test with MCF7, 9.5 nM in the test with A549 and 4.9 nM in the test with SK-OV-3 [1].

Turning to `COc1ccc2c(c1)CCCN2c1nc(NC(C)C)nc2ccc(F)cc12`, the IC50 with MDA-MB-231 stood at 25 nM; in the test with MCF7 it was 15.1 nM; in the test on A549 it was 45.7 nM; with SK-OV-3 [1], 22.3 nM.

As for `COCCCNc1nc(N2CCCc3cc(OC)ccc32)c2cc(F)ccc2n1`, the IC50 with MDA-MB-231 amounted to 39.7 nM; in the test on MCF7, 28 nM; with A549, 33.1 nM; in the test with SK-OV-3 [1], 18.9 nM.

For the compound `COc1ccc2c(c1)CCCN2c1nc(NCC(C)C)nc2ccc(F)cc12`, the IC50 with MDA-MB-231 was determined as 330 nM; with MCF7, 553 nM; in the test on A549, 440 nM; in the test with SK-OV-3 [1], 157 nM.

Turning to `COc1ccc2c(c1)CCCN2c1nc(Cl)nc2ccc(Cl)cc12`, the IC50 with MDA-MB-231 came to 24.7 nM; in the test on MCF7 it was 37.5 nM; in the test with A549, 67 nM; with SK-OV-3 [1] it was 39.6 nM.

On to `COc1ccc2c(c1)CCCN2c1nc(NCCCO)nc2ccc(F)cc12`, for which the IC50 was determined as 9.3 nM with MDA-MB-231, 6 nM in the test with MCF7, 12.7 nM with A549 and 5.7 nM in the test on SK-OV-3 [1].

On to `COc1ccc2c(c1)CCCN2c1nc(-c2cc(OC)c(OC)c(OC)c2)nc2ccc(F)cc12`, for which the IC50 in the test on MDA-MB-231, in the test with MCF7, in the test on A549 and in the test on SK-OV-3 [1] was over 1000 nM throughout.

On to `COc1ccc2c(c1)CCCN2c1nc(NCCOCCOCCO)nc2ccc(F)cc12`, for which the IC50 was found to be 136 nM in the test with MDA-MB-231, 192 nM in the test with MCF7, 90.9 nM in the test with A549 and 69.4 nM in the test on SK-OV-3 [1].

For the compound `COc1ccc2c(c1)CCCN2c1nc(N2CCCC2)nc2ccc(F)cc12`, the IC50 with MDA-MB-231, in the test on MCF7, with A549 and in the test with SK-OV-3 [1] was over 1000 nM throughout.

Take `COc1ccc2c(c1)CCCN2c1nc(N2CCCCC2)nc2ccc(F)cc12`: the IC50 with MDA-MB-231, in the test on MCF7, in the test with A549 and with SK-OV-3 [1] was over 1000 nM throughout.

Turning to `COc1ccc2c(c1)CCCN2c1nc(N)nc2ccc(F)cc12`, the IC50 in the test on MDA-MB-231 came out at 7.1 nM; in the test with MCF7 it was 6 nM; in the test with A549, 7.2 nM; in the test with SK-OV-3 [1], 4.4 nM.

On to `COc1ccc2c(c1)CCCN2c1nc(Cl)nc2ccc(OC(F)(F)F)cc12`, for which the IC50 with MDA-MB-231, in the test with MCF7, in the test on A549 and with SK-OV-3 [1] was over 1000 nM each time.

Take `CCCCNc1nc(N2CCCc3cc(OC)ccc32)c2cc(F)ccc2n1`: the IC50 is 61.1 nM in the test on MDA-MB-231, 47.1 nM with MCF7, 69.2 nM in the test on A549 and 26 nM in the test on SK-OV-3 [1].

In the case of `COc1ccc2c(c1)CCCN2c1nc(Cl)nc2ccc(I)cc12`, the IC50 worked out at 327 nM in the test on MDA-MB-231, 547 nM in the test on MCF7, 315 nM in the test on A549 and 160 nM with SK-OV-3 [1].

Turning to `COc1ccc2c(c1)CCCN2c1nc(NC2CCC2)nc2ccc(F)cc12`, the IC50 with MDA-MB-231 stood at 36.2 nM; in the test on MCF7 it was 23.8 nM; with A549, 51.3 nM; with SK-OV-3 [1] it was 31.3 nM.

On to `COc1ccc2c(c1)CCCN2c1nc(Cl)nc2ccc(C(F)(F)F)cc12`, for which the IC50 with MDA-MB-231, in the test with MCF7, in the test on A549 and in the test on SK-OV-3 [1] was over 1000 nM each time.

Regarding `COc1ccc2c(c1)CCCN2c1nc(NC2CC2)nc2ccc(F)cc12`, the IC50 was 11.5 nM with MDA-MB-231, 2.4 nM in the test with MCF7, 7.5 nM with A549 and 1.5 nM in the test with SK-OV-3 [1].

On to `CC(=O)O[C@H]1C(=O)[C@@]2(C)[C@H]([C@H](OC(=O)c3ccccc3)[C@]3(O)C[C@H](OC(=O)[C@H](O)[C@@H](NC(=O)c4ccccc4)c4ccccc4)C(C)=C1C3(C)C)[C@]1(OC(C)=O)CO[C@@H]1C[C@@H]2O` [PACLITAXEL], for which, at Tubulin (Homo sapiens) [2], the inhibition entry was “Active”. The inhibition in vivo at 10 mg/kg in the test on SK-OV-3 [3] came to 39.1%. Further, the IC50 in the test with MCF7 was 30.9 nM; in the test with A549, 1.7 nM; in the test with SK-OV-3 [1] it was 11.6 nM. For the same compound, the inhibition entry on Tubulin (Homo sapiens) [4] is “Not active; Aggregated Into Bundle Like Filamentary Structure”.

On to `COc1ccc(Nc2nc(N3CCCc4cc(OC)ccc43)c3cc(F)ccc3n2)cc1`, for which the IC50 with MDA-MB-231, in the test on MCF7, in the test on A549 and with SK-OV-3 [1] was over 1000 nM each time.

Take `COc1ccc2c(c1)CCCN2c1nc(Cl)nc2ccc(OC)cc12`: the IC50 came out at 65.3 nM in the test with MDA-MB-231, 65.4 nM in the test on MCF7, 33.4 nM in the test on A549 and 58 nM in the test on SK-OV-3 [1].

As to `CCCNc1nc(N2CCCc3cc(OC)ccc32)c2cc(F)ccc2n1`, the IC50 is 25.6 nM in the test on MDA-MB-231, 11.8 nM in the test with MCF7, 19.3 nM in the test on A549 and 6.7 nM with SK-OV-3 [1].

In the case of `COc1ccc2c(c1)CCCN2c1nc(N2CCOCC2)nc2ccc(F)cc12`, the IC50 in the test on MDA-MB-231 is 57.5 nM; with MCF7, 60.4 nM; with A549, 53.2 nM; in the test with SK-OV-3 [1], 31.6 nM.

On to `COc1ccc2c(c1)CCCN2c1nc(NC(C)(C)C)nc2ccc(F)cc12`, for which the IC50 with MDA-MB-231, in the test on MCF7, in the test with A549 and in the test with SK-OV-3 [1] was over 1000 nM throughout.

For the compound `COc1ccc2c(c1)CCCN2c1nc(N(C)C)nc2ccc(F)cc12`, the IC50 was 45.5 nM in the test with MDA-MB-231, 35.3 nM with MCF7, 64.4 nM in the test with A549 and 44.5 nM in the test on SK-OV-3 [1].

Take `COCCNc1nc(N2CCCc3cc(OC)ccc32)c2cc(F)ccc2n1`: the IC50 in the test on MDA-MB-231 came out at 15.8 nM; in the test on MCF7, 17.8 nM; in the test with A549, 22.8 nM; in the test with SK-OV-3 [1], 3.4 nM.

For the compound `COc1ccc2c(c1)CCCN2c1nc(NC2CCCCC2)nc2ccc(F)cc12`, the IC50 with MDA-MB-231, in the test with MCF7, with A549 and in the test with SK-OV-3 [1] was over 1000 nM in each case.

With `CCN(CC)c1nc(N2CCCc3cc(OC)ccc32)c2cc(F)ccc2n1`, the IC50 with MDA-MB-231 is 900 nM; in the test on MCF7, 714 nM; in the test on A549, over 1000 nM; in the test with SK-OV-3 [1] it was 471 nM.
